4 compounds from patent publication US20210269815A1, “GENETICALLY MODIFIED PLANT AND USES THEREOF” (IST AUSTRIA, priority 2018, published 2021) can be followed below.

Common to all, as to type: in vivo, Arabidopsis
The subject of data set [1] is SYAC1 promoter. Description: pSYAC1:GUS / pSYAC1:nlsGFP reporter expression in roots. As for the experimental part: The syac1-1 (salk_151420C, Col-0, KAN^R) and syac1-2 (salk_151662B, Col-0, KAN^R) T-DNA insertion lines were obtained from the Salk Institute. The syac1-3 (GABI-KAT 760F05, Col-0, SUL^R) and syac1-4 (GABI-KAT 961C03, Col-0, SUL^R) T-DNA insertion lines were obtained from the GABI KAT seed collection. The syac1-5 CRISPR line was prepared in collaboration with the VBCF Protein Technologies Facility (www.vbcf.ac.at) (see below). The genetically modified fluorescent-protein marker lines in Col-0 background have been described elsewhere: mCherry tagged wave line 6, 9, 13, 18, 25, 29, 34, 127, 129, 131, 138 (Geldner et al., 2009, Plant J. 59, 169-178), SYP61:SYP61-CFP (Drakakaki et al., 2012, Cell Res. 22, 413-424). The echidna mutant has been described in (Gendre et al., 2011, PNAS 108, 8048-8053) and yip4a-2 yip4b-1 in (Gendre et al., 2013, The Plant Cell 25, 2633-2646). Seeds of Arabidopsis were plated and grown on square plates with solid half strength Murashige and Skoog (MS) medium (Duchefa) supplemented with 0.5 g L^−1 MES, 10 g L^−1 Sucrose, 1% agar and pH adjusted to 5.9. The plates were incubated at 4° C. for 48 h to synchronize seed germination and then vertically grown under a 16:8 h day/night cycle photoperiod at 21° C. Cytokinin and auxin treatments were performed with the N6-benzyladenine cytokinin derivative (Sigma) and Naphthaleneacetic acid (Sigma), respectively. Short treatments (6 hours) for GUS/GFP expression were performed with 10 μM cytokinin and 1 μM auxin (unless indicated differently). For root growth transient assay 0.1 μM cytokinin and 0.05 μM auxin was used. Estradiol treatment was performed with β-Estradiol (Sigma).
For promoter analysis of SYAC1, an upstream sequence of 2522 bp was amplified by PCR and introduced into the pDONRP4-P1R entry vector. Then transcriptional lines (pSYAC1:GUS, pSYAC1:nlsGFP) were created: for pSYAC1:GUS, an LR reaction with SYAC1 promoter in pDONORP4-P1R, pEN-L1-S-L2,0 and pK7m24GW,0 vectors was performed. For pSYAC1:nlsGFP line, an LR reaction with SYAC1 promoter in pDONORP4-P1R, pEN-L1-NF-L2,0 and pB7m24GW,0 was performed. […]

For data set [2], the system named is root tip of wild type control plants. As to the kind of experiment: Effect of excess copper on the primary root of seedlings grown on agar. As to conditions: 5 days on normal media, then transferred to media containing 50 μM CuSO4. As for the experimental part:
Plants were grown for 5 days on normal AM+ media and then transferred to media containing 50 μM CuSO4.

Data set [3] has as its system SYAC1 expression. Description: Genome wide transcriptome profiling of roots exposed to auxin, cytokinin and both hormones. Particulars: 3 hours of treatment, 1 μM auxin, 10 μM cytokinin. As for the experimental part:
The syac1-1 (salk_151420C, Col-0, KAN^R) and syac1-2 (salk_151662B, Col-0, KAN^R) T-DNA insertion lines were obtained from the Salk Institute. The syac1-3 (GABI-KAT 760F05, Col-0, SUL^R) and syac1-4 (GABI-KAT 961C03, Col-0, SUL^R) T-DNA insertion lines were obtained from the GABI KAT seed collection. The syac1-5 CRISPR line was prepared in collaboration with the VBCF Protein Technologies Facility (www.vbcf.ac.at) (see below). The genetically modified fluorescent-protein marker lines in Col-0 background have been described elsewhere: mCherry tagged wave line 6, 9, 13, 18, 25, 29, 34, 127, 129, 131, 138 (Geldner et al., 2009, Plant J. 59, 169-178), SYP61:SYP61-CFP (Drakakaki et al., 2012, Cell Res. 22, 413-424). The echidna mutant has been described in (Gendre et al., 2011, PNAS 108, 8048-8053) and yip4a-2 yip4b-1 in (Gendre et al., 2013, The Plant Cell 25, 2633-2646). […]
To search for novel molecular components and mechanisms of auxin-cytokinin cross-talk, genome wide transcriptome profiling of roots exposed to auxin, cytokinin and both hormones simultaneously, was performed. […] This SYAC1 expression profile in roots was further validated by quantitative real-time (RT-qPCR) (FIG. 2A). […]

For `NC1(C(=O)O)CC1` [ACC, 1-aminocyclopropane-1-carboxylic acid], in data set [1] (roots treated with ACC only or in combination with cytokinin, auxin or both), the “enhancement of pSYAC1:GUS expression” value was “No enhancement”.

With `O=S(=O)([O-])[O-].[Cu+2]` [CuSO4], in data set [2], the “swelling of cells at the root tip” value is recorded as “trigger swelling of cells at the root tip”. For the same compound, the “SYAC1 promoter-driven GUS expression in reporter lines” value in data set [1] (50 μM CuSO4 in ½MS plus Agar substrate) was “able to trigger”.

As to `O=C(O)Cc1cccc2ccccc12` [auxin, Naphthaleneacetic acid], the “SYAC1 expression compared to an untreated control” value in data set [3] turned out to be 2.47±0.20.

On to `c1ccc(CNc2ncnc3nc[nH]c23)cc1` [cytokinin, N6-benzyladenine], for which, in data set [3], the “SYAC1 expression compared to an untreated control” value was 1.53±0.19. Besides, the “pSYAC1 reporter signal (pSYAC1:GUS, pSYAC1:nlsGFP)” value in data set [1] (roots, 6 hours exposure) is “enhanced reporter signal in the quiescent center (QC) and columella initials (CI)”.
